The target of the assay is T1, PTP1B (Homo sapiens, UniProt P18031).
T1 sequence (P18031 1-435): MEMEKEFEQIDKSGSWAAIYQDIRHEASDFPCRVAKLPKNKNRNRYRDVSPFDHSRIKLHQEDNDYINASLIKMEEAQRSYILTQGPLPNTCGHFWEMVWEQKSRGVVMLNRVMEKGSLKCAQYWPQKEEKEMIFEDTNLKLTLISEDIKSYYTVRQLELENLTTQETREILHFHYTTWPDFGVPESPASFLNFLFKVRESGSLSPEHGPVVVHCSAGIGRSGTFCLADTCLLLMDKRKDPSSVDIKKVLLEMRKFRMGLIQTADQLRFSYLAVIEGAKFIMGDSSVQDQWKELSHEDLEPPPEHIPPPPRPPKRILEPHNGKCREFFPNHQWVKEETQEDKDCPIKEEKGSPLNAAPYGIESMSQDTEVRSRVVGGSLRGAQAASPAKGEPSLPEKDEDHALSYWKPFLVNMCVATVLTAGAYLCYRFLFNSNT
The assay is described as follows: p-NPP dephosphorylation end-point assay at […] nm, […] compound. It is filed as biochemical. To be noted: read-out: % inhibition at 10 μmol/L.

Structures are written as SMILES.

Consider `COc1c(O)ccc(/C=C/C(=O)O)c1SC[C@@H](O)C(=O)O` [compound 1, (S)-2-(2-carboxyl-2-hydroxyethylthio)-ferulic acid], for which the inhibition at 10 µM was determined as 19.6%.

The values above are taken from PMC6147803 (Acta Pharmaceutica Sinica. B, 2018).
